{"source": "PubChem BioAssay AID1918994", "about": "(Molecular Pharmacology Branch, DTP, NCI, 2023);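 note: spheroids exposed to compounds for seven days after three days of growth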", "system": "292921-168-R-J2-PDC complex spheroid growth", "assay": "Anticancer human tumor 292921-168-R-J2-PDC patient-derived pancreatic carcinoma cell line growth inhibition [AhR]", "conditions": "for IC50: curve of first compound; for viability, T/C: stronger effect = lower value", "method_in_brief": "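Spheroids combined tumor cells with HUVEC endothelial cells and human MSCs as stroma. AhR antagonists were paired with standard or investigational drugs, each dosed in half-log steps down from near clinical Cmax, or from 10 microM where Cmax was unknown.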"}
{"smiles": "O=C(C=Cn1cnc(-c2cc(C(F)(F)F)cc(C(F)(F)F)c2)n1)NNc1cnccn1", "note": "+ Cc1ccccc1N=Nc1ccc(NC(=O)c2ccnn2C)c(C)c1", "values": [{"measurement": "IC50", "setting": "second compound 0.1 µM", "result": 194, "unit": "nM"}, {"measurement": "IC50", "setting": "second compound 0.316 µM", "result": 126, "unit": "nM"}, {"measurement": "IC50", "setting": "second compound 1 µM", "result": 115, "unit": "nM"}, {"measurement": "IC50", "setting": "second compound 3.16 µM", "result": 76.4, "unit": "nM"}, {"measurement": "IC50", "setting": "second compound 10 µM", "result": 29.1, "unit": "nM"}, {"measurement": "viability, T/C", "setting": "second compound 0.1 µM, first compound 0.00949 µM", "result": 88.1, "unit": "%"}, {"measurement": "viability, T/C", "setting": "second compound 0.1 µM, first compound 0.03 µM", "result": 84.6, "unit": "%"}, {"measurement": "viability, T/C", "setting": "second compound 0.1 µM, first compound 0.0949 µM", "result": 75.5, "unit": "%"}, {"measurement": "viability, T/C", "setting": "second compound 0.1 µM, first compound 0.3 µM", "result": 34.5, "unit": "%"}, {"measurement": "viability, T/C", "setting": "second compound 0.1 µM, first compound 0.949 µM", "result": 16, "unit": "%"}, {"measurement": "viability, T/C", "setting": "second compound 0.1 µM, first compound 3 µM", "result": 12, "unit": "%"}, {"measurement": "viability, T/C", "setting": "second compound 0.316 µM, first compound 0.00949 µM", "result": 95.8, "unit": "%"}, {"measurement": "viability, T/C", "setting": "second compound 0.316 µM, first compound 0.03 µM", "result": 77.9, "unit": "%"}, {"measurement": "viability, T/C", "setting": "second compound 0.316 µM, first compound 0.0949 µM", "result": 58.1, "unit": "%"}, {"measurement": "viability, T/C", "setting": "second compound 0.316 µM, first compound 0.3 µM", "result": 31, "unit": "%"}, {"measurement": "viability, T/C", "setting": "second compound 0.316 µM, first compound 0.949 µM", "result": 14.9, "unit": "%"}, {"measurement": "viability, T/C", "setting": "second compound 0.316 µM, first compound 3 µM", "result": 9.51, "unit": "%"}, {"measurement": "viability, T/C", "setting": "second compound 1 µM, first compound 0.00949 µM", "result": 78.1, "unit": "%"}, {"measurement": "viability, T/C", "setting": "second compound 1 µM, first compound 0.03 µM", "result": 61.8, "unit": "%"}, {"measurement": "viability, T/C", "setting": "second compound 1 µM, first compound 0.0949 µM", "result": 57.9, "unit": "%"}, {"measurement": "viability, T/C", "setting": "second compound 1 µM, first compound 0.3 µM", "result": 30.6, "unit": "%"}, {"measurement": "viability, T/C", "setting": "second compound 1 µM, first compound 0.949 µM", "result": 13, "unit": "%"}, {"measurement": "viability, T/C", "setting": "second compound 1 µM, first compound 3 µM", "result": 9.8, "unit": "%"}, {"measurement": "viability, T/C", "setting": "second compound 3.16 µM, first compound 0.00949 µM", "result": 79.2, "unit": "%"}, {"measurement": "viability, T/C", "setting": "second compound 3.16 µM, first compound 0.03 µM", "result": 64, "unit": "%"}, {"measurement": "viability, T/C", "setting": "second compound 3.16 µM, first compound 0.0949 µM", "result": 48.2, "unit": "%"}, {"measurement": "viability, T/C", "setting": "second compound 3.16 µM, first compound 0.3 µM", "result": 26.4, "unit": "%"}, {"measurement": "viability, T/C", "setting": "second compound 3.16 µM, first compound 0.949 µM", "result": 15.2, "unit": "%"}, {"measurement": "viability, T/C", "setting": "second compound 3.16 µM, first compound 3 µM", "result": 8.58, "unit": "%"}, {"measurement": "viability, T/C", "setting": "second compound 10 µM, first compound 0.00949 µM", "result": 59.8, "unit": "%"}, {"measurement": "viability, T/C", "setting": "second compound 10 µM, first compound 0.03 µM", "result": 50.8, "unit": "%"}, {"measurement": "viability, T/C", "setting": "second compound 10 µM, first compound 0.0949 µM", "result": 37.1, "unit": "%"}, {"measurement": "viability, T/C", "setting": "second compound 10 µM, first compound 0.3 µM", "result": 29.1, "unit": "%"}, {"measurement": "viability, T/C", "setting": "second compound 10 µM, first compound 0.949 µM", "result": 18, "unit": "%"}, {"measurement": "viability, T/C", "setting": "second compound 10 µM, first compound 3 µM", "result": 9.82, "unit": "%"}]}
